Results taken from patent US5698411A, “Method for determining activity of enzymes in metabolically active whole cells” (priority 1995, dated 1997).

How the values were obtained:
Format in all cases: cell-based, human
lymphocytes [1] = assay: aberrant enzyme activities in febrile children, lymphocytes (Table 7)
monocytes [2] = assay: enzyme activity with fluorogenic substrate, normal monocytes (Table 3A)
monocytes [3] = assay: aberrant enzyme activities in febrile children, monocytes (Table 7)
lymphocytes [4] = assay: enzyme activity with fluorogenic substrate, normal lymphocytes (Table 3A)
granulocytes [5] = assay: aberrant enzyme activities in febrile children, granulocytes (Table 7)
granulocytes [6] = assay: enzyme activity with fluorogenic substrate, normal granulocytes (Table 3A)
[7] = P88 Enteritis, listed as Z-Gly/Pro-M
[8] = P95 Viral Syndrome, listed as Val/Lys-M
[9] = P96 Viral Syndrome, listed as Val/Lys-M
[10] = P97 Pyelonephritis, listed as Val/Lys-M
[11] = P89 Viral Stomatitis, listed as Val/Lys-M

C[C@@H](O)[C@H](NC(=O)OCc1ccccc1)C(=O)N1CCC[C@H]1C(=O)Nc1ccc2c(c1)Oc1cc(NC(=O)[C@@H]3CCCN3C(=O)[C@@H](NC(=O)OCc3ccccc3)[C@@H](C)O)ccc1C21OC(=O)c2ccccc21 [Z-TP6.5M]
aberrant enzyme activity, LYMPHS (lymphocytes [1]; P92 Adenitis): - (>0.25 Decrease over normal range) | aberrant enzyme activity, LYMPHS (lymphocytes [1]; P97 Pyelonephritis): .smallcircle. | aberrant enzyme activity, LYMPHS (lymphocytes [1]; P103 Viral Syndrome): .smallcircle. | NORMAL LEUKOCYTE ENZYME ACTIVITY MONOS Mean (monocytes [2]): 45.70 | aberrant enzyme activity, MONOS (monocytes [3]; P92 Adenitis): - (>0.25 Decrease over normal range) | aberrant enzyme activity, MONOS (monocytes [3]; P97 Pyelonephritis): .smallcircle. | aberrant enzyme activity, MONOS (monocytes [3]; P103 Viral Syndrome): .smallcircle. | NORMAL LEUKOCYTE ENZYME ACTIVITY LYMPHS Mean (lymphocytes [4]): 20.62 | aberrant enzyme activity, GRANS (granulocytes [5]; P92 Adenitis): - (>0.25 Decrease over normal range) | aberrant enzyme activity, GRANS (granulocytes [5]; P97 Pyelonephritis): .smallcircle. | aberrant enzyme activity, GRANS (granulocytes [5]; P103 Viral Syndrome): .smallcircle. | NORMAL LEUKOCYTE ENZYME ACTIVITY GRANS Mean (granulocytes [6]): 55.07

O=C(NCC(=O)N1CCC[C@H]1C(=O)Nc1ccc2c(c1)Oc1cc(NC(=O)[C@@H]3CCCN3C(=O)CNC(=O)OCc3ccccc3)ccc1C21OC(=O)c2ccccc21)OCc1ccccc1 [Z-GP-M, (carbobenzyloxycarbonyl-Gly-Pro)2 Rho 110 (modified)]
aberrant enzyme activity, LYMPHS (lymphocytes [1]; [7]): - (>0.25 Decrease over normal range) | aberrant enzyme activity, LYMPHS (lymphocytes [1]; P89 Viral Stomatitis): - (>0.25 Decrease over normal range) | aberrant enzyme activity, LYMPHS (lymphocytes [1]; P92 Adenitis): - (>0.25 Decrease over normal range) | aberrant enzyme activity, LYMPHS (lymphocytes [1]; P97 Pyelonephritis, listed as Z-Gly/Pro-M): - (>0.25 Decrease over normal range) | aberrant enzyme activity, LYMPHS (lymphocytes [1]; P103 Viral Syndrome): - (>0.25 Decrease over normal range) | NORMAL LEUKOCYTE ENZYME ACTIVITY MONOS Mean (monocytes [2]): 119.81 | aberrant enzyme activity, MONOS (monocytes [3]; [7]): - (>0.25 Decrease over normal range) | aberrant enzyme activity, MONOS (monocytes [3]; P89 Viral Stomatitis): .smallcircle. | aberrant enzyme activity, MONOS (monocytes [3]; P92 Adenitis): - (>0.25 Decrease over normal range) | aberrant enzyme activity, MONOS (monocytes [3]; P97 Pyelonephritis): .smallcircle. | aberrant enzyme activity, MONOS (monocytes [3]; P103 Viral Syndrome): .smallcircle. | NORMAL LEUKOCYTE ENZYME ACTIVITY LYMPHS Mean (lymphocytes [4]): 53.74 | aberrant enzyme activity, GRANS (granulocytes [5]; [7]): - (>0.25 Decrease over normal range) | aberrant enzyme activity, GRANS (granulocytes [5]; P92 Adenitis): - (>0.25 Decrease over normal range) | aberrant enzyme activity, GRANS (granulocytes [5]; P97 Pyelonephritis): .smallcircle. | aberrant enzyme activity, GRANS (granulocytes [5]; P103 Viral Syndrome): .smallcircle. | NORMAL LEUKOCYTE ENZYME ACTIVITY GRANS Mean (granulocytes [6]): 130.62

CC(C)[C@H](N)C(=O)N[C@@H](CCCCN)C(=O)Nc1ccc2c(c1)Oc1cc(NC(=O)[C@H](CCCCN)NC(=O)[C@@H](N)C(C)C)ccc1C21OC(=O)c2ccccc21 [VK-M, (Val-Lys)2 Rho 110 (modified)]
aberrant enzyme activity, LYMPHS (lymphocytes [1]; P88 Enteritis): .smallcircle. | aberrant enzyme activity, LYMPHS (lymphocytes [1]; P89 Viral Stomatitis): .smallcircle. | aberrant enzyme activity, LYMPHS (lymphocytes [1]; P92 Adenitis): .smallcircle. | aberrant enzyme activity, LYMPHS (lymphocytes [1]; [8]): + (>0.25 Increase over normal range) | aberrant enzyme activity, LYMPHS (lymphocytes [1]; [9]): + (>0.25 Increase over normal range) | aberrant enzyme activity, LYMPHS (lymphocytes [1]; [10]): + (>0.25 Increase over normal range) | aberrant enzyme activity, LYMPHS (lymphocytes [1]; P101 Fever -- Unknown Origin): .smallcircle. | aberrant enzyme activity, LYMPHS (lymphocytes [1]; P102 UTI): .smallcircle. | aberrant enzyme activity, LYMPHS (lymphocytes [1]; P103 Viral Syndrome): .smallcircle. | NORMAL LEUKOCYTE ENZYME ACTIVITY MONOS Mean (monocytes [2]): 43.37 | aberrant enzyme activity, MONOS (monocytes [3]; P88 Enteritis): - (>0.25 Decrease over normal range) | aberrant enzyme activity, MONOS (monocytes [3]; [11]): .smallcircle. | aberrant enzyme activity, MONOS (monocytes [3]; P92 Adenitis, listed as Val/Lys-M): - (>0.25 Decrease over normal range) | aberrant enzyme activity, MONOS (monocytes [3]; P95 Viral Syndrome): .smallcircle. | aberrant enzyme activity, MONOS (monocytes [3]; P96 Viral Syndrome): .smallcircle. | aberrant enzyme activity, MONOS (monocytes [3]; P97 Pyelonephritis): .smallcircle. | aberrant enzyme activity, MONOS (monocytes [3]; P101 Fever -- Unknown Origin, listed as Val/Lys-M): - (>0.25 Decrease over normal range) | aberrant enzyme activity, MONOS (monocytes [3]; P102 UTI): - (>0.25 Decrease over normal range) | aberrant enzyme activity, MONOS (monocytes [3]; P103 Viral Syndrome, listed as Val/Lys-M): .smallcircle. | NORMAL LEUKOCYTE ENZYME ACTIVITY LYMPHS Mean (lymphocytes [4]): 2.05 | aberrant enzyme activity, GRANS (granulocytes [5]; P88 Enteritis): - (>0.25 Decrease over normal range) | aberrant enzyme activity, GRANS (granulocytes [5]; [11]): .smallcircle. | aberrant enzyme activity, GRANS (granulocytes [5]; P92 Adenitis): .smallcircle. | aberrant enzyme activity, GRANS (granulocytes [5]; [8]): + (>0.25 Increase over normal range) | aberrant enzyme activity, GRANS (granulocytes [5]; [9]): + (>0.25 Increase over normal range) | aberrant enzyme activity, GRANS (granulocytes [5]; [10]): .smallcircle. | aberrant enzyme activity, GRANS (granulocytes [5]; P101 Fever -- Unknown Origin): .smallcircle. | aberrant enzyme activity, GRANS (granulocytes [5]; P102 UTI, listed as Val/Lys-M): - (>0.25 Decrease over normal range) | aberrant enzyme activity, GRANS (granulocytes [5]; P103 Viral Syndrome): .smallcircle. | NORMAL LEUKOCYTE ENZYME ACTIVITY GRANS Mean (granulocytes [6]): 4.31

C[C@@H](O)[C@H](NC(=O)OCc1ccccc1)C(=O)N1CCC[C@H]1C(=O)Nc1ccc2c(c1)Oc1cc(NC(=O)[C@@H]3CCCN3C(=O)[C@@H](NC(=O)OCc3ccccc3)[C@@H](C)O)ccc1C21OC(=O)c2ccccc21 [Z-TP 8.7-M]
aberrant enzyme activity, LYMPHS (lymphocytes [1]; P92 Adenitis): - (>0.25 Decrease over normal range) | aberrant enzyme activity, LYMPHS (lymphocytes [1]; P97 Pyelonephritis): .smallcircle. | aberrant enzyme activity, LYMPHS (lymphocytes [1]; P103 Viral Syndrome): .smallcircle. | NORMAL LEUKOCYTE ENZYME ACTIVITY MONOS Mean (monocytes [2]): 71.45 | aberrant enzyme activity, MONOS (monocytes [3]; P92 Adenitis): - (>0.25 Decrease over normal range) | aberrant enzyme activity, MONOS (monocytes [3]; P97 Pyelonephritis): .smallcircle. | aberrant enzyme activity, MONOS (monocytes [3]; P103 Viral Syndrome): .smallcircle. | NORMAL LEUKOCYTE ENZYME ACTIVITY LYMPHS Mean (lymphocytes [4]): 30.99 | aberrant enzyme activity, GRANS (granulocytes [5]; P92 Adenitis): - (>0.25 Decrease over normal range) | aberrant enzyme activity, GRANS (granulocytes [5]; P97 Pyelonephritis): .smallcircle. | aberrant enzyme activity, GRANS (granulocytes [5]; P103 Viral Syndrome): .smallcircle. | NORMAL LEUKOCYTE ENZYME ACTIVITY GRANS Mean (granulocytes [6]): 80.16
